Source: DBAASP
Converted amounts (≈) assume the structure as drawn.

Key:
Experiment in all cases: ≥ marks a high value that may be exact or a test limit, other limits are often not marked, values filed in µg/mL are converted to µM
[1] = tested on: Staphylococcus aureus ATCC 25923
[2] = tested on: Bacillus subtilis ATCC 6633
[3] = tested on: Streptococcus agalactiae
[4] = tested on: Salmonella enterica subsp. enterica serovar Typhi ATCC 6399
[5] = tested on: Escherichia coli ATCC 25922
[6] = tested on: Pseudomonas aeruginosa ATCC 9027
[7] = tested on: Staphylococcus aureus CVCC 1882
[8] = tested on: Escherichia coli CVCC 1570
[9] = tested on: Micrococcus luteus CVCC 1600
[10] = tested on: Bacillus subtilis CVCC 717
[11] = tested on: Bacillus pumilus CVCC 709
[12] = tested on: Staphylococcus aureus ATCC 12600
[13] = tested on: Botrytis cinerea
[14] = tested on: Candida albicans ATCC 10231
[15] = tested on: Escherichia coli ATCC 11775
[16] = tested on: Escherichia coli ESBL 63103
[17] = tested on: Enterococcus faecalis W61950
[18] = tested on: Enterococcus faecalis f43559
[19] = tested on: Staphylococcus aureus C623
[20] = tested on: Enterococcus faecium t62764
[21] = tested on: Pseudomonas aeruginosa LES400
[22] = tested on: Pseudomonas aeruginosa 198
[23] = tested on: Enterobacter cloacae 218R
[24] = tested on: Stenotrophomonas maltophilia ATCC 13637
[25] = tested on: Pseudomonas aeruginosa 9
[26] = tested on: Klebsiella pneumoniae ESBL 61962
[27] = tested on: Enterococcus faecium mic80
[28] = tested on: Escherichia coli ESBL 64771
[29] = tested on: Pseudomonas aeruginosa H1030
[30] = tested on: Klebsiella pneumoniae ESBL 63575
[31] = tested on: Pseudomonas aeruginosa H1027
[32] = tested on: Pseudomonas aeruginosa PAO1 H103
[33] = tested on: Pseudomonas aeruginosa 213
[34] = tested on: Enterococcus faecalis ATCC 29212
[35] = tested on: Salmonella typhimurium
[36] = tested on: Shigella dysenteriae
[37] = tested on: Bacillus subtilis
[38] = tested on: Staphylococcus epidermidis
[39] = tested on: Pseudomonas aeruginosa
[40] = tested on: Klebsiella pneumoniae
[41] = tested on: Micrococcus luteus
[42] = tested on: Staphylococcus aureus
[43] = tested on: Escherichia coli
[44] = tested on: Proteus mirabilis
[45] = tested on: Klebsiella pneumoniae ATCC 13883
[46] = tested on: Staphylococcus aureus USA 300 LAC

In the case of `CC[C@H](C)[C@H](NC(=O)[C@H](CO)NC(=O)[C@H](CCCCN)NC(=O)[C@H](C)NC(=O)[C@H](C)NC(=O)[C@H](CC(N)=O)NC(=O)[C@H](Cc1c[nH]c2ccccc12)NC(=O)[C@H](CC(C)C)NC(=O)[C@@H](NC(=O)[C@H](CO)NC(=O)[C@H](CC(C)C)NC(=O)[C@@H](N)Cc1ccccc1)[C@@H](C)O)C(=O)N[C@@H](Cc1ccccc1)C(N)=O` [FLSTLWNAAKSIF], the MIC [1] is reported as 10 µM (≈ 15 µg/mL), the MIC [2] is reported as 20 µM (≈ 29.9 µg/mL) and the MIC [3] is reported as 20 µM (≈ 29.9 µg/mL). For the same compound, the MIC [4] was 10 µM (≈ 15 µg/mL), the MIC [5] was 20 µM (≈ 29.9 µg/mL) and the MIC [6] was 10 µM (≈ 15 µg/mL).

Compound `CC[C@H](C)[C@H](NC(=O)[C@H](CO)NC(=O)[C@H](CCCCN)NC(=O)[C@H](CCCN=C(N)N)NC(=O)[C@H](C)NC(=O)[C@H](C)NC(=O)CN)C(=O)N[C@@H](CCCN=C(N)N)C(=O)N[C@@H](CC(C)C)C(=O)N[C@@H](Cc1cnc[nH]1)C(=O)N[C@@H](CCCN=C(N)N)C(=O)N[C@@H](CC(C)C)C(=O)N[C@@H](Cc1ccc(O)cc1)C(=O)N[C@H](C(=O)N[C@@H](Cc1c[nH]c2ccccc12)C(=O)N[C@@H](CCCCN)C(=O)N[C@@H](C)C(=O)N[C@H](C(=O)N[C@H](C(=O)N[C@@H](Cc1ccc(O)cc1)C(=O)N[C@H](C(=O)N[C@@H](CCCN=C(N)N)C(=O)O)[C@@H](C)O)[C@@H](C)CC)[C@@H](C)O)[C@@H](C)O` [GAARKSIRLHRLYTWKATIYTR] has an MIC [7] of 23.3 µM (≈ 62 µg/mL), an MIC [8] of 16.7 µM (≈ 44.5 µg/mL) and an MIC [9] of 8 µM (≈ 21.3 µg/mL). The MIC [10] was 13.3 µM (≈ 35.4 µg/mL) and the MIC [11] was 9 µM (≈ 24 µg/mL).

`CC[C@H](C)[C@H](N)C(=O)N[C@@H](CC(C)C)C(=O)NCC(=O)N[C@H](C(=O)N[C@H](C(=O)N[C@H](C(=O)N[C@@H](CO)C(=O)N[C@@H](CC(C)C)C(=O)N[C@@H](CC(C)C)C(=O)N[C@@H](CCCCN)C(=O)N[C@@H](CO)C(=O)N[C@@H](CC(C)C)C(N)=O)[C@@H](C)O)[C@@H](C)CC)[C@@H](C)CC` [ILGIITSLLKSL] was tested, and the MIC [12] was 19.7 µM (≈ 25 µg/mL), the MIC [13] was 0.394 µM (≈ 0.5 µg/mL) and the MIC [14] was 15.7 µM (≈ 20 µg/mL). For the same compound, the MIC [15] was no less than 78.7 µM.

`CSCC[C@H](NC(=O)[C@@H](NC(=O)[C@H](C)NC(=O)[C@@H]1CCCN1C(=O)[C@H](CO)NC(=O)[C@@H](N)CC(C)C)C(C)C)C(=O)N[C@@H](C)C(=O)N[C@@H](CO)C(=O)N[C@@H](CC(C)C)C(=O)N[C@@H](C)C(N)=O` [LSPAVMASLA] showed an MIC [12] of no less than 200 µM, an MIC [13] of no less than 200 µM and an MIC [14] greater than 200 µM. The MIC [15] was no less than 200 µM.

In the case of `CC[C@H](C)[C@H](NC(=O)[C@H](Cc1c[nH]c2ccccc12)NC(=O)[C@H](Cc1c[nH]c2ccccc12)NC(=O)[C@H](CCCCN)NC(=O)[C@H](CC(C)C)NC(=O)[C@H](CCCN=C(N)N)NC(=O)[C@H](CCCCN)NC(=O)[C@@H](N)CCCN=C(N)N)C(=O)N[C@@H](Cc1ccc(O)cc1)C(=O)O` [RKRLKWWIY], the MIC [16] is reported as 3.48 µM (≈ 4.7 µg/mL), the MIC [17] is reported as no less than 110 µM and the MIC [18] is reported as no less than 110 µM. It also gave an MIC [19] of 3.48 µM (≈ 4.7 µg/mL), an MIC [1] of 3.48 µM (≈ 4.7 µg/mL) and an MIC [20] of 1.78 µM (≈ 2.4 µg/mL). For the same compound, the MIC [21] was 27.4 µM (≈ 37 µg/mL), the MIC [22] was 27.4 µM (≈ 37 µg/mL) and the MIC [23] was 7.12 µM (≈ 9.6 µg/mL). For the same compound, the MIC [24] was 1.78 µM (≈ 2.4 µg/mL), the MIC [25] was 27.4 µM (≈ 37 µg/mL) and the MIC [26] was no less than 110 µM. It also gave an MIC [27] of 7.12 µM (≈ 9.6 µg/mL), an MIC [28] of 3.48 µM (≈ 4.7 µg/mL) and an MIC [29] of 27.4 µM (≈ 37 µg/mL). For the same compound, the MIC [30] was 27.4 µM (≈ 37 µg/mL), the MIC [31] was 3.48 µM (≈ 4.7 µg/mL) and the MIC [32] was 13.3 µM (≈ 18 µg/mL). The MIC [33] was 27.4 µM (≈ 37 µg/mL) and the MIC [34] was 27.4 µM (≈ 37 µg/mL).

`NCCCC[C@H](NC(=O)[C@H](Cc1c[nH]c2ccccc12)NC(=O)[C@H](Cc1c[nH]c2ccccc12)NC(=O)[C@H](CCCCN)NC(=O)[C@H](CCCCN)NC(=O)[C@@H](N)Cc1c[nH]c2ccccc12)C(=O)N[C@@H](CCCN=C(N)N)C(=O)N[C@@H](CCCN=C(N)N)C(=O)N[C@@H](Cc1c[nH]c2ccccc12)C(=O)O` [WKKWWKRRW] gave an MIC [16] of 11 µM (≈ 16 µg/mL), an MIC [17] of no less than 87 µM and an MIC [18] of no less than 87 µM. It also gave an MIC [19] of 1.37 µM (≈ 2 µg/mL), an MIC [1] of 0.685 µM (≈ 1 µg/mL) and an MIC [20] of 2.74 µM (≈ 4 µg/mL). The MIC [21] was 21.2 µM (≈ 31 µg/mL), the MIC [22] was 21.2 µM (≈ 31 µg/mL) and the MIC [23] was 11 µM (≈ 16 µg/mL). For the same compound, the MIC [24] was 0.685 µM (≈ 1 µg/mL), the MIC [25] was 21.2 µM (≈ 31 µg/mL) and the MIC [26] was no less than 87 µM. For the same compound, the MIC [27] was 5.62 µM (≈ 8.2 µg/mL), the MIC [28] was 1.37 µM (≈ 2 µg/mL) and the MIC [29] was 21.2 µM (≈ 31 µg/mL). It also gave an MIC [30] of 21.2 µM (≈ 31 µg/mL), an MIC [31] of 2.74 µM (≈ 4 µg/mL) and an MIC [32] of 11 µM (≈ 16 µg/mL). It also gave an MIC [33] of no less than 43.2 µM and an MIC [34] of 43.2 µM (≈ 63 µg/mL).

`CC(C)C[C@H](NC(=O)[C@@H](NC(=O)[C@H](CCCCN)NC(=O)[C@H](CO)NC(=O)[C@H](C)NC(=O)[C@@H](NC(=O)[C@H](CCCCN)NC(=O)[C@H](Cc1ccccc1)NC(=O)[C@H](CC(C)C)NC(=O)[C@H](C)NC(=O)CNC(=O)[C@H](CC(C)C)NC(=O)[C@@H](N)Cc1c[nH]c2ccccc12)C(C)C)C(C)C)C(=O)O` [WLGALFKVASKVL] gave an MIC [35] of no less than 69.8 µM, an MIC [36] of 17.5 µM (≈ 25 µg/mL) and an MIC [37] of 4.4 µM (≈ 6.3 µg/mL). The MIC [38] was 2.17 µM (≈ 3.1 µg/mL), the MIC [39] was 69.8 µM (≈ 100 µg/mL) and the MIC [40] was 17.5 µM (≈ 25 µg/mL). For the same compound, the MIC [41] was 1.12 µM (≈ 1.6 µg/mL), the MIC [42] was 1.12 µM (≈ 1.6 µg/mL) and the MIC [43] was 8.73 µM (≈ 12.5 µg/mL). The MIC [44] was no less than 140 µM.

`CC[C@H](C)[C@H](NC(=O)[C@H](CCCCN)NC(=O)[C@H](CCCN=C(N)N)NC(=O)[C@H](CC(C)C)NC(=O)[C@H](Cc1c[nH]c2ccccc12)NC(=O)[C@@H](N)Cc1c[nH]c2ccccc12)C(=O)N[C@@H](Cc1c[nH]c2ccccc12)C(=O)N[C@@H](Cc1c[nH]c2ccccc12)C(N)=O` [WWLRKIWW] showed an MIC [45] of no less than 50 µM, an MIC [46] of 6.2 µM (≈ 7.89 µg/mL) and an MIC [5] of 25 µM (≈ 31.8 µg/mL).
